Laboratory results as given in patent US11591369B2, “Alpha(v)beta(6) integrin-binding peptides and methods of use thereof” (priority 2018, dated 2023).
“And” between values parts separate entries of the source, which are not always exact repeats. Equal entries are not always repeated. Where two headings read alike, the source gives them in different places. Where a SMILES comes first, the peptide text is derived from it. Primed or numbered codes have the meaning given here. Where no end group is shown, it is not given here. [ ]: non-standard residue; d: D form. The star is where a group is joined. (18F)FB = [18F] fluorobenzoyl group, O=C(c1ccc([18F])cc1)*; (18F)FB″ = [18F]fluorobenzoyl, O=C(c1ccc([18F])cc1)*; PEG12′ = polyethylene glycol, 12 units; PEG28″ = polyethylene glycol, 28 units; PEG2′ = polyethylene glycol, 2 units; PEG4′ = polyethylene glycol, 4 units; PEG8′ = polyethylene glycol, 8 units; Benzoyl(4-F) = O=C(c1ccc(F)cc1)*; PEG28′ = polyethylene glycol-28; Amb = aminomethylbenzoyl

Tests used:
αvβ6 integrin = target: T1, αvβ6 integrin (Homo sapiens, UniProt P06756+P18564); test: Competitive binding ELISA against biotinylated LAP (BtLAP), αvβ6 integrin; conditions: for binding selectivity for αvβ6 over αvβ3 and αvβ8 integrins: ELISA IC50 ratio; for IC50 αvβ6: competitive ELISA vs BtLAP, mean ± SD, n = 3
T1 construct: All purified integrins were purchased from R&D Systems (MN, USA); purchased R&D Systems (MN, USA)

αvβ3 integrin = target: T2, αvβ3 integrin (Homo sapiens, UniProt P05106+P06756); test: Competitive binding ELISA, αvβ3 integrin
T2 construct: All purified integrins were purchased from R&D Systems (MN, USA); purchased R&D Systems (MN, USA)

αvβ8 integrin = target: T3, αvβ8 integrin (Homo sapiens, UniProt P06756+P26012); test: Competitive binding ELISA, αvβ8 integrin
T3 construct: All purified integrins were purchased from R&D Systems (MN, USA); purchased R&D Systems (MN, USA)

DX3puroβ6 (αvβ6+) cells = test: [18F]-radiolabeled peptide cell binding and internalization, DX3puroβ6 (αvβ6+) cells; assay type: cell-based, human; set-up: fold increase in binding to DX3puroβ6 (αvβ6+) cells / fold lower binding to DX3puroβ6 (αvβ6+) cells: reference not given here; conditions: for binding to DX3puroβ6 (αvβ6+) cells: % of total activity, 37° C.
[1] = Circular dichroism (CD) spectroscopy; assay type: physicochemical; conditions: for % Helical Content CD Buffer: 25 mM phosphate + 100 mM NaF; for % Helical Content CD Buffer + 30% TFE: buffer with 30% trifluoroethanol; for α-helix formation in CD buffer with TFE: buffer with added TFE, 30%
[2] = 37° C., 1 hour, radio-HPLC

Row | Compound | IC50 (αvβ6 integrin) | IC50 (αvβ3 integrin) | IC50 (αvβ8 integrin) | binding to DX3puroβ6 (αvβ6+) cells (DX3puroβ6 (αvβ6+) cells; 1 hour) | DX3puroβ6 (αvβ6+)/DX3puro (αvβ6−) selectivity ratio (DX3puroβ6 (αvβ6+) cells) | intact peptide in mouse serum [2] | percent internalized relative to the amount bound to DX3puroβ6 (αvβ6+) cells (DX3puroβ6 (αvβ6+) cells; 1 hour) | also measured
1 | CC(C)C[C@H](NC(=O)[C@H](CC(=O)O)NC(=O)[C@H](CO)NC(=O)[C@H](CCCNC(=N)N)NC(=O)c1ccc(F)cc1)C(=O)N[C@H](C(=O)N1CCC[C@H]1C(=O)N[C@@H](CC(C)C)C(=O)N[C@@H](Cc1ccccc1)C(=O)N[C@@H](CCC(N)=O)C(=O)N[C@@H](CCCCN)C(=O)N[C@H](C(=O)N[C@@H](C)C(=O)N[C@@H](CCCNC(=N)N)C(=O)N[C@H](C(N)=O)[C@@H](C)O)C(C)C)[C@@H](C)O [KL3Q] ({Benzoyl(4-F)}-RSDLTPLFQKVART-NH2) | 8.7 ± 0.7 nM | > 100000 nM | > 100000 nM | – | – | – | – | –
2 | CC(C)C[C@H](NC(=O)[C@H](CC(=O)O)NC(=O)[C@H](CO)NC(=O)[C@H](CCCNC(=N)N)NC(=O)c1ccc(F)cc1)C(=O)N[C@H](C(=O)N1CCC[C@H]1C(=O)N[C@@H](CC(C)C)C(=O)N[C@@H](Cc1ccccc1)C(N)=O)[C@@H](C)O [KL3] ({Benzoyl(4-F)}-RSDLTPLF-NH2) | 1700 ± 500 nM | > 100000 nM | > 100000 nM | 0.7±0.2% | – | – | – | DX3puroβ6 (αvβ6+)/DX3puro (αvβ6−) selectivity ratio (DX3puroβ6 (αvβ6+) cells; cell binding, 1 hour): 0.9±0.5 :1
3 | CC(C)C[C@H](NC(=O)[C@H](Cc1ccc(O)cc1)NC(=O)[C@@H](NC(=O)[C@H](CC(C)C)NC(=O)[C@H](CC(=O)O)NC(=O)CNC(=O)[C@@H](NC(=O)c1ccc(F)cc1)C(C)C)[C@@H](C)O)C(=O)N[C@@H](CCCCN)C(=O)N[C@@H](CCCCN)C(=O)N[C@@H](CCCCN)C(=O)N[C@H](C(=O)N[C@@H](C)C(=O)N[C@@H](CCCNC(=N)N)C(=O)N[C@H](C(N)=O)[C@@H](C)O)C(C)C [P1K-b] | 10 ± 2 nM | > 100000 nM | > 100000 nM | – | – | – | – | binding selectivity for αvβ6 over αvβ3 and αvβ8 integrins (αvβ6 integrin): 10,000 :1; IC50 αvβ6 (αvβ6 integrin): low nanomolar
4 | CC(C)C[C@H](NC(=O)[C@H](Cc1ccc(O)cc1)NC(=O)[C@@H](NC(=O)[C@H](CC(C)C)NC(=O)[C@H](CC(=O)O)NC(=O)CNC(=O)[C@@H](NC(=O)c1ccc(F)cc1)C(C)C)[C@@H](C)O)C(=O)N[C@@H](CCCCN)C(=O)N[C@@H](CCCNC(=N)N)C(=O)N[C@@H](CCCCN)C(=O)N[C@@H](C)C(=O)N[C@H](C(=O)N[C@H](C(=O)N[C@@H](CCC(N)=O)C(N)=O)C(C)C)[C@@H](C)O [P1Q-Scrb] ({Benzoyl(4-F)}-VGDLTYLKRKATVQ-NH2) | 14 ± 2 nM | > 100000 nM | 2900 ± 740 nM | – | – | – | – | IC50 αvβ6 (αvβ6 integrin): low nanomolar
5 | CC(C)C[C@H](NC(=O)[C@H](Cc1ccc(O)cc1)NC(=O)[C@@H](NC(=O)[C@H](CC(C)C)NC(=O)[C@H](CC(=O)O)NC(=O)CNC(=O)[C@@H](NC(=O)c1ccc(F)cc1)C(C)C)[C@@H](C)O)C(=O)N[C@@H](CCCCN)C(=O)N[C@@H](CCC(N)=O)C(=O)N[C@@H](CCCCN)C(=O)N[C@H](C(=O)N[C@@H](C)C(=O)N[C@@H](CCCNC(=N)N)C(=O)N[C@H](C(N)=O)[C@@H](C)O)C(C)C [P1Q] | 12 ± 1 nM | > 100000 nM | > 100000 nM | – | 10.3 ± 1:1 | – | – | binding selectivity for αvβ6 over αvβ3 and αvβ8 integrins (αvβ6 integrin): 10,000 :1; IC50 αvβ6 (αvβ6 integrin): low nanomolar; % Helical Content CD Buffer [1]: 1.6%; % Helical Content CD Buffer + 30% TFE [1]: 45.1%; α-helix formation in CD buffer with TFE [1]: α-helices were induced
6 | CC(C)C[C@H](NC(=O)[C@H](Cc1ccc(O)cc1)NC(=O)[C@@H](NC(=O)[C@H](CC(C)C)NC(=O)[C@H](CC(=O)O)NC(=O)CNC(=O)[C@@H](N)C(C)C)[C@@H](C)O)C(=O)N[C@@H](CCCCN)C(=O)N[C@@H](CCCCNC(=O)c1ccc(F)cc1)C(N)=O [P1] (H-VGDLTYLKK(Benzoyl(4-F))-NH2) | 450 ± 60 nM | > 100000 nM | 5300 ± 140 nM | – | 1.1 ± 0.1:1 | – | – | % Helical Content CD Buffer [1]: 6.3%; % Helical Content CD Buffer + 30% TFE [1]: 9.5%; α-helix formation in CD buffer with TFE [1]: could not form the helix
7 | CC(C)C[C@H](NC(=O)[C@H](Cc1ccc(O)cc1)NC(=O)[C@@H](NC(=O)[C@H](CC(C)C)NC(=O)[C@H](CC(=O)O)NC(=O)CNC(=O)[C@@H](NC(=O)c1ccc(F)cc1)C(C)C)[C@@H](C)O)C(=O)N[C@@H](CCCCN)C(=O)N[C@@H](CCC(N)=O)C(=O)N[C@@H](CCCCN)C(=O)N[C@H](C(=O)N[C@@H](C)C(=O)N[C@@H](CCCNC(=N)N)C(=O)N[C@H](C(=O)NCCOCCOCCOCCOCCOCCOCCOCCOCCOCCOCCOCCOCCOCCOCCOCCOCCOCCOCCOCCOCCOCCOCCOCCOCCOCCOCCOCCOCCC(N)=O)[C@@H](C)O)C(C)C [T1] | – | – | – | 18.1±0.8% | 41.7±5.3 :1 | 61% | – | –
8 | RGDLADLRK([^18F]FB) (RGDLADLRK((18F)FB″)) [[^18F]P3] | – | – | – | 10.8±1.4% | – | 0% | 4.3±0.6% | –
9 | VGDLTYLKK([^18F]FB) (VGDLTYLKK((18F)FB″)) [[^18F]P1] | – | – | – | 12.8±1.9% | – | 25% and < 25% | 3.7±0.6% | –
10 | VGDLTYLKK([^18F]FB)KVART (VGDLTYLKK((18F)FB″)KVART) [[^18F]P1K-a] | – | – | – | 6.2±1.3% | – | > 99% | – | –
11 | [^18F]FB-Amb-VGDLTYLKQKVART-PEG28 ({(18F)FB″-Amb}-VGDLTYLKQKVART[PEG28′]) [N-[^18F]T1-f] | – | – | – | 6.8±0.2% | 3.2±0.4 :1 | < 50% | 25.2±2.4% | fold loss in selectivity for DX3puroβ6 (αvβ6+) cells (DX3puroβ6 (αvβ6+) cells): 13 fold; fold decline in binding to DX3puroβ6 (αvβ6+) cells (DX3puroβ6 (αvβ6+) cells; compared to the parent T1): 3 fold
12 | [^18F]FB-PEG2-VGDLTYLKQKVART-PEG28 ({(18F)FB″-PEG2′}-VGDLTYLKQKVART[PEG28″]) [N-[^18F]T1-a] | – | – | – | – | – | 65% | 31.1±7.2% | –
13 | [^18F]FB-PEG4-VGDLTYLKQKVART-PEG28 ({(18F)FB″-PEG4′}-VGDLTYLKQKVART[PEG28″]) [N-[^18F]T1-b] | – | – | – | – | – | – | 33.9±7.9% | intact peptide in mouse serum ([2]; 60 min): 72% and 75%
14 | [^18F]FB-PEG8-VGDLTYLKQKVART-PEG28 ({(18F)FB″-PEG8′}-VGDLTYLKQKVART[PEG28″]) [N-[^18F]T1-c] | – | – | – | – | – | 91% | 36.9±3% | –
15 | [^18F]FB-PEG12-VGDLTYLKQKVART-PEG28 ({(18F)FB″-PEG12′}-VGDLTYLKQKVART[PEG28″]) [N-[^18F]T1-d] | – | – | – | – | – | 82% | 32±13% | –
16 | [^18F]FB-PEG28Amb-VGDLTYLKQKVART-PEG28 ({(18F)FB-PEG28′-Amb}-VGDLTYLKQKVART[PEG28′]) [N-[^18F]T1-g] | – | – | – | 3±0.2% | 5.7±0.06 :1 and 5.7±0.05 :1 | 90% | 43.1±4.4% | fold loss in selectivity for DX3puroβ6 (αvβ6+) cells (DX3puroβ6 (αvβ6+) cells): 7 fold; fold lower binding to DX3puroβ6 (αvβ6+) cells (DX3puroβ6 (αvβ6+) cells): 2 fold
17 | [^18F]FB-RGDLADLRQKVART ({(18F)FB″}-RGDLADLRQKVART) [N-[^18F]P3Q] | – | – | – | 20±0.4% and 20±0.2% and 20% | – | 16% | 12.4±3.6% | –
18 | [^18F]FB-RGDLTYLKQKVART-PEG28 ({(18F)FB″}-RGDLTYLKQKVART[PEG28′]) [N-[^18F]T1-V1R] | – | – | – | 34.2±0.2% | 11.1±0.5 :1 | 54% | 11.1±2.6% | fold increase in binding to DX3puroβ6 (αvβ6+) cells (DX3puroβ6 (αvβ6+) cells): 6 fold
19 | [^18F]FB-VGDLTYLKQKVART-PEG28 ({(18F)FB″}-VGDLTYLKQKVART[PEG28′]) [N-[^18F]T1] | – | – | – | 18.1±0.8% | 41.7±5.3 :1 | 61% | – | fold increase in binding to DX3puroβ6 (αvβ6+) cells (DX3puroβ6 (αvβ6+) cells): 3 fold
